As a reminder, the pEC50 is −log10 of the EC50, conventionally taken in molar units. Low values mean a high EC50, high ones a low EC50.

pEC50: −log10 of the molar value.

The subject of one experiment is NL-RLuc virus. As to the kind of experiment: Inhibition of HIV replication: NL-RLuc reporter virus in MT-2 cells, luciferase readout. It counts as cell-based. As to conditions: Human immunodeficiency virus 1, MT2, 120 h, MT-2 cells infected with NL-RLuc virus, 5 days of incubation, 10% FBS, at least 2 experiments. The text has this:
Inhibition of HIV Replication:
A recombinant NL-RLuc proviral clone was constructed in which a section of the nef gene from NL4-3 was replaced with the Renilla Luciferase gene. This virus is fully infectious and can undergo multiple cycles of replication in cell culture. In addition, the luciferous reporter provides a simple and easy method for quantitating the extent of virus growth and consequently, the antiviral activity of test compounds. The plasmid pNLRLuc contains the proviral NL-Rluc DNA cloned into pUC 18 at the PvuII site. The NL-RLuc virus was prepared by transfection of 293T cells with the plasmid pNLRLuc. Transfections were performed using the LipofectAMINE PLUS kit from Invitrogen (Carlsbad, Calif.) according to the manufacturer and the virus generated was titered in MT-2 cells. For susceptibility analyses, the titrated virus was used to infect MT-2 cells in the presence of compound, and after 5 days of incubation, cells were processed and quantitated for virus growth by the amount of expressed luciferase. Assay media was RPMI 1640 supplemented with 10% heat inactivated fetal bovine serum (FBS), 100 units/ml penicillin G/100 units/ml streptomycin, 10 mM HEPES buffer pH 7.55 and 2 mM L-glutamine. The results from at least 2 experiments were used to calculate the EC50 values. Luciferase was quantitated using the Dual Luciferase kit from Promega (Madison, Wis.). Susceptibility of viruses to compounds was determined by incubation in the presence of serial dilutions of the compound. The 50% effective concentration (EC50) was calculated by using the exponential form of the median effect equation where (Fa)=1/[1+(ED50/drug conc.)^m](Johnson V A, Byington R T. Infectivity Assay. In Techniques in HIV Research. ed. Aldovini A, Walker B D. 71-76. New York: Stockton Press. 1990).
Regarding `Cc1c([C@H](OC(C)(C)C)C(=O)O)c2n3cc(nc3c1C(C)C)-c1cccc(c1)-c1cc(F)ccc1O[C@@H](C)CCCCOC1(C)CCN2CC1` [Example 56, (2S)-2-(tert-Butoxy)-2-[(22S)-17-fluoro-4,22,28-trimethyl-5-(propan-2-yl)-21,27-dioxa-1,7,34-triazahexacyclo[26.2.2.1^6,^9.1^10,^14.0^2,^7.0^15,^20]tetratriaconta-2,4,6(34),8,10(33),11,13,15(20),16,18-decaen-3-yl]acetic acid], the pEC50 is 7.14. The same measure, in the same setting: to `Cc1cc2c(cc1F)-c1cccc(c1)-c1nc3c(Br)c(C)c([C@H](OC(C)(C)C)C(=O)O)c(n3c1Cl)N1CCC(C)(CC1)OCCCC[C@H](C)O2` [Example 29, (2S)-2-[(22S)-5-Bromo-8-chloro-17-fluoro-4,18,22,28-tetramethyl-21,27-dioxa-1,7,34-triazahexacyclo[26.2.2.1^6,^9.1^10,^14.0^2,^7.0^15,^20]tetratriaconta-2,4,6(34),8,10(33),11,13,15(20),16,18-decaen-3-yl]-2-(tert-butoxy)acetic acid] belongs 7.52. Still for that read-out and setting: as for `Cc1cc2nc3cn2c(c1[C@H](OC(C)(C)C)C(=O)O)N1CCC(C)(CC1)OCCCCCOc1ccc(F)cc1CNC3=O` [Example 3, (2S)-2-(tert-Butoxy)-2-{15-fluoro-4,26-dimethyl-10-oxo-19,25-dioxa-1,7,11,31-tetraazapentacyclo[24.2.2.1^6,^9.0^2,^7.0^13,^18]hentriaconta-2,4,6(31),8,13(18),14,16-heptaen-3-yl}acetic acid], the figure is 7.57; as for `CCc1c(C)c([C@H](OC(C)(C)C)C(=O)O)c2n3cc(nc13)-c1cccc(c1)-c1cc(F)c(F)cc1O[C@@H](C)CCCCOC1(C)CCN2CC1` [Example 57, (2S)-2-(tert-Butoxy)-2-[(22S)-5-ethyl-17,18-difluoro-4,22,28-trimethyl-21,27-dioxa-1,7,34-triazahexacyclo[26.2.2.1^6,^9.1^10,^14.0^2,^7.0^15,^20]tetratriaconta-2,4,6(34),8,10(33),11,13,15(20),16,18-decaen-3-yl]acetic acid], 7.89; as for `Cc1cc2nc3cn2c(c1[C@H](OC(C)(C)C)C(=O)O)N1CCC(C)(CC1)OC/C=C/C[C@H](C)Oc1c(F)cccc1-c1cccc-3c1` [Example 34, (2S)-2-(tert-Butoxy)-2-[(22S,24E)-19-fluoro-4,22,28-trimethyl-21,27-dioxa-1,7,34-triazahexacyclo[26.2.2.1^6,^9.1^10,^14.0^2,^7.0^15,^20]tetratriaconta-2,4,6(34),8,10(33),11,13,15(20),16,18,24-undecaen-3-yl]acetic acid], 8.52. Regarding `Cc1c([C@H](OC(C)(C)C)C(=O)O)c2n3cc(nc3c1C)-c1cccc(c1)-c1cc(F)c(F)cc1O[C@@H](C)CCCCOC1(C)CCN2CC1` [Example 41, (2S)-2-(tert-Butoxy)-2-[(22S)-17,18-difluoro-4,5,22,28-tetramethyl-21,27-dioxa-1,7,34-triazahexacyclo[26.2.2.1^6,^9.1^10,^14.0^2,^7.0^15,^20]tetratriaconta-2,4,6(34),8,10(33),11,13,15(20),16,18-decaen-3-yl]acetic acid], the negative logarithm of the EC50 (pEC50) is 7.89.

Molecule `Cc1c([C@H](OC(C)(C)C)C(=O)O)c2n3cc(nc3c1Br)-c1cccc(c1)-c1cccc(F)c1O[C@@H](C)CCCCOC1(C)CCN2CC1` [Example 36, (2S)-2-[(22S)-5-Bromo-19-fluoro-4,22,28-trimethyl-21,27-dioxa-1,7,34-triazahexacyclo[26.2.2.1^6,^9.1^10,^14.0^2,^7.0^15,^20]tetratriaconta-2,4,6(34),8,10(33),11,13,15(20),16,18-decaen-3-yl]-2-(tert-butoxy)acetic acid] gave a pEC50 of 8.00. The pEC50 values of the last two molecules are within 0.2 log units of each other. `CC(=O)c1c(C)c([C@H](OC(C)(C)C)C(=O)O)c2n3cc(nc13)-c1cccc(c1)-c1cc(F)ccc1O[C@@H](C)CCCCOC1(C)CCN2CC1` [Example 64, (2S)-2-[(22S)-5-Acetyl-17-fluoro-4,22,28-trimethyl-21,27-dioxa-1,7,34-triazahexacyclo[26.2.2.1^6,^9.1^10,^14.0^2,^7.0^15,^20]tetratriaconta-2,4,6(34),8,10(33),11,13,15(20),16,18-decaen-3-yl]-2-(tert-butoxy)acetic acid] showed a negative-log EC50 (pEC50) of 8.22. Take `Cc1cc2nc3cn2c(c1[C@H](OC(C)(C)C)C(=O)O)N1CCC(C)(CC1)OCCCCC[C@H](C)Oc1cc(F)cc(F)c1-c1cccc-3c1` [Example 16, (2S)-2-(tert-Butoxy)-2-[(22S)-16,18-difluoro-4,22,28-trimethyl-21,27-dioxa-1,7,34-triazahexacyclo[26.2.2.1^6,^9.1^10,^14.0^2,^7.0^15,^20]tetratriaconta-2,4,6(34),8,10(33),11,13,15(20),16,18-decaen-3-yl]acetic acid]: the pEC50 is 8.40. This pEC50 and that of the molecule before are within 0.2 log units of each other. Take `Cc1cc2nc3cn2c(c1[C@H](OC(C)(C)C)C(=O)O)N1CCC(C)(CC1)OCCCC[C@H](C)Oc1ccc(F)c(F)c1-c1cccc-3c1` [Example 46, (2S)-2-(tert-butoxy)-2-[(22S)-16,17-difluoro-4,22,28-trimethyl-21,27-dioxa-1,7,34-triazahexacyclo[26.2.2.1^6,^9.1^10,^14.0^2,^7.0^15,^20]tetratriaconta-2,4,6(34),8,10(33),11,13,15(20),16,18-decaen-3-yl]acetic acid]: the negative logarithm of the EC50 (pEC50) was 8.40. For the molecule `Cc1cc2nc3cn2c(c1[C@H](OC(C)(C)C)C(=O)O)N1CCC(C)(CCCCCCOc2ccc(F)cc2CNC3=O)CC1` [Example 2, (2S)-2-(tert-Butoxy)-2-{15-fluoro-4,26-dimethyl-10-oxo-19-oxa-1,7,11,31-tetraazapentacyclo[24.2.2.1^6,^9.0^2,^7.0^13,^18]hentriaconta-2,4,6(31),8,13(18),14,16-heptaen-3-yl}acetic acid], the pEC50 was 7.80. `Cc1c([C@H](OC(C)(C)C)C(=O)O)c2n3cc(nc3c1C)-c1cccc(c1)-c1cccc(F)c1O[C@@H](C)CCCCOC1(C)CCN2CC1` [Example 37, (2S)-2-(tert-Butoxy)-2-[(22S)-19-fluoro-4,5,22,28-tetramethyl-21,27-dioxa-1,7,34-triazahexacyclo[26.2.2.1^6,^9.1^10,^14.0^2,^7.0^15,^20]tetratriaconta-2,4,6(34),8,10(33),11,13,15(20),16,18-decaen-3-yl]acetic acid] showed a pEC50 of 8.00. For the molecule `Cc1c([C@H](OC(C)(C)C)C(=O)O)c2n3cc(nc3c1C(F)F)-c1cccc(c1)-c1cc(F)ccc1O[C@@H](C)CCCCOC1(C)CCN2CC1` [Example 63, (2S)-2-(tert-Butoxy)-2-[(22S)-5-(difluoromethyl)-17-fluoro-4,22,28-trimethyl-21,27-dioxa-1,7,34-triazahexacyclo[26.2.2.1^6,^9.1^10,^14.0^2,^7.0^15,^20]tetratriaconta-2,4,6(34),8,10(33),11,13,15(20),16,18-decaen-3-yl]acetic acid], the pEC50 is 7.74. On the same count and under the same terms, to `CCc1c(C)c([C@H](OC(C)(C)C)C(=O)O)c2n3cc(nc13)-c1cccc(c1)-c1cc(F)ccc1O[C@@H](C)CCCCOC1(C)CCN2CC1` [Example 55, (2S)-2-(tert-Butoxy)-2-[(22S)-5-ethyl-17-fluoro-4,22,28-trimethyl-21,27-dioxa-1,7,34-triazahexacyclo[26.2.2.1^6,^9.1^10,^14.0^2,^7.0^15,^20]tetratriaconta-2,4,6(34),8,10(33),11,13,15(20),16,18-decaen-3-yl]acetic acid] belongs 8.05; to `Cc1c([C@H](OC(C)(C)C)C(=O)O)c2n3cc(nc3c1-c1ccncc1)-c1cccc(c1)-c1cc(F)ccc1O[C@@H](C)CCCCOC1(C)CCN2CC1` [Example 39, (2S)-2-(tert-Butoxy)-2-[(22S)-17-fluoro-4,22,28-trimethyl-5-(pyridin-4-yl)-21,27-dioxa-1,7,34-triazahexacyclo[26.2.2.1^6,^9.1^10,^14.0^2,^7.0^15,^20]tetratriaconta-2,4,6(34),8,10(33),11,13,15(20),16,18-decaen-3-yl]acetic acid], 7.92. Still for that read-out and setting: to `Cc1cc2nc3cn2c(c1[C@H](OC(C)(C)C)C(=O)O)N1CCC(C)(CC1)OC/C=C/C[C@H](C)Oc1cc(F)ccc1-c1cccc-3c1` [Example 6, (2S)-2-(tert-Butoxy)-2-[(22S)-18-fluoro-4,22,28-trimethyl-21,27-dioxa-1,7,34-triazahexacyclo[26.2.2.1^6,^9.1^10,^14.0^2,^7.0^15,^20]tetratriaconta-2,4,6(34),8,10(33),11,13,15(20),16,18,24-undecaen-3-yl]acetic acid] belongs 8.30.

The same experiment, now with this note: MT-2 cells infected with NL-RLuc virus, 5 days of incubation, 10% FBS, at least 2 experiments.
In the case of `Cc1c([C@H](OC(C)(C)C)C(=O)O)c2n3cc(nc3c1C)-c1cccc(c1)-c1c(F)cc(F)cc1O[C@@H](C)CCCCOC1(C)CCN2CC1` [Example 43, (2S)-2-(tert-Butoxy)-2-[(22S)-16,18-difluoro-4,5,22,28-tetramethyl-21,27-dioxa-1,7,34-triazahexacyclo[26.2.2.1^6,^9.1^10,^14.0^2,^7.0^15,^20]tetratriaconta-2,4,6(34),8,10(33),11,13,15(20),16,18-decaen-3-yl]acetic acid], the negative-log EC50 (pEC50) is 7.96.

The values are drawn from patent publication US9409922B2, “Imidazopyridine macrocycles as inhibitors of human immunodeficiency virus replication” (priority 2014, dated 2016).
